From ChEMBL document CHEMBL5365408, “Small molecule inhibitors of PCSK9. SAR investigations of head and amine groups” (Bioorg Med Chem Lett, 2023)

Legend:
[1] = molecular target: Proprotein convertase subtilisin/kexin type 9 (Homo sapiens, UniProt Q8NBP7); assay: Inhibition of full length human PCSK9 expressed in human Huh-7 cells by ELISA analysis; format: cell-based
[2] = Cytotoxicity against rat Bone marrow cell assessed as inhibition of cell growth with puromycin as high potent effect standard by celltiter-glo assay; format: toxicity, cell-based; conditions: rat bone marrow cells
[3] = Selectivity index, ratio of IC50 for cytotoxicity against rat Bone marrow cell assessed as inhibition of cell growth by celltiter-glo assay to IC50 for inhibition of full length human PCSK9 expressed in human Huh-7 cells by ELISA analysis
[4] = Cytotoxicity against rat Bone marrow cell assessed as inhibition of cell growth with (R)-4-(3H-[1,2,3]triazolo[4,5-b]pyridin-3-yl)-N-(3-chloropyridin-2-yl)-N-(piperidin-3-yl) benzamide as high potent effect standard by celltiter-glo assay; format: toxicity, cell-based; conditions: rat, rat bone marrow cells
[5] = Cytotoxicity against human CD34-positive cell assessed as reduction in cell growth by celltiter-glo assay; format: toxicity, cell-based; conditions: human CD34-positive cells
[6] = molecular target: Voltage-gated inwardly rectifying potassium channel KCNH2 (Homo sapiens, UniProt Q12809); assay: Inhibition of hERG by patch clamp assay; format: toxicity
Voltage-gated inwardly rectifying potassium channel KCNH2, sequence (Q12809 whole entry): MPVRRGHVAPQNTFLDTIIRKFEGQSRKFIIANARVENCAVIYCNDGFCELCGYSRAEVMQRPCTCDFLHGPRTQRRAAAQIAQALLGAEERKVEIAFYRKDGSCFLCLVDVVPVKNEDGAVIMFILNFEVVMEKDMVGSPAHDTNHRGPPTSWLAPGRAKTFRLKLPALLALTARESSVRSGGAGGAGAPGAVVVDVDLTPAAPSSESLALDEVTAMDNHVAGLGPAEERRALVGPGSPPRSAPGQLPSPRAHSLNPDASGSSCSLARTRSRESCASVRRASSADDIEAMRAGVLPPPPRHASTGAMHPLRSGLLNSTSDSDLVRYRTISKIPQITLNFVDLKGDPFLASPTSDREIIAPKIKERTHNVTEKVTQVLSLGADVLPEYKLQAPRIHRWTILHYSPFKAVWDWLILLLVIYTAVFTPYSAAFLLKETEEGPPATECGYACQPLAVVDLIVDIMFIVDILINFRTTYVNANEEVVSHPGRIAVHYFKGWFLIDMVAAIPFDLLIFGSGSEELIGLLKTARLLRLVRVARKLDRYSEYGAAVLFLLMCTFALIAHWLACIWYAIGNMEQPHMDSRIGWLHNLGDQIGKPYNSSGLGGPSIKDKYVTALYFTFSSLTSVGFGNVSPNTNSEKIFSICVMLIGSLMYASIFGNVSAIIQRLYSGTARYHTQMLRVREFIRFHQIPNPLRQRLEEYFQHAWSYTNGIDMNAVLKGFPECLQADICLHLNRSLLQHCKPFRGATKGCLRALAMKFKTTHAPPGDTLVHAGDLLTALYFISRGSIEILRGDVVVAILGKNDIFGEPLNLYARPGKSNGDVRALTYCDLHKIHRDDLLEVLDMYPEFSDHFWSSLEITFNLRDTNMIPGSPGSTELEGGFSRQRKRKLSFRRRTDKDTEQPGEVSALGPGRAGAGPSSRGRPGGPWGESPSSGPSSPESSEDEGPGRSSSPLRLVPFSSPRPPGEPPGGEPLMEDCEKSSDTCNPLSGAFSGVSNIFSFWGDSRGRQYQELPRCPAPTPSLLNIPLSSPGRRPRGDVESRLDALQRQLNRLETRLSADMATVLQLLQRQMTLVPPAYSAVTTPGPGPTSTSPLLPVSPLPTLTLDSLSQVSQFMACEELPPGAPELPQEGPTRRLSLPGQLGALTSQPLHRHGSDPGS

[7] = Lipophilicity, log D of the compound by shake flask method; format: physicochemical; conditions: octanol/water
[8] = Apparent permeability of compound in MDCK-II cells; format: ADME, cell-based, Canis lupus familiaris; conditions: dog, read-out: permeability
[9] = Apparent permeability across apical to basolateral side in MDCK-MDR1 cells; format: ADME, cell-based, Canis lupus familiaris; conditions: dog, read-out: permeability
[10] = Apparent permeability across basolateral to apical side in MDCK-MDR1 cells; format: ADME, cell-based, Canis lupus familiaris; conditions: dog, read-out: permeability
CYP1A2 = molecular target: T1, CYP1A2 (Homo sapiens, UniProt P05177); assay: Inhibition of CYP1A2 (unknown origin) at 3 uM relative to control; format: ADME
T1 sequence (P05177 whole entry): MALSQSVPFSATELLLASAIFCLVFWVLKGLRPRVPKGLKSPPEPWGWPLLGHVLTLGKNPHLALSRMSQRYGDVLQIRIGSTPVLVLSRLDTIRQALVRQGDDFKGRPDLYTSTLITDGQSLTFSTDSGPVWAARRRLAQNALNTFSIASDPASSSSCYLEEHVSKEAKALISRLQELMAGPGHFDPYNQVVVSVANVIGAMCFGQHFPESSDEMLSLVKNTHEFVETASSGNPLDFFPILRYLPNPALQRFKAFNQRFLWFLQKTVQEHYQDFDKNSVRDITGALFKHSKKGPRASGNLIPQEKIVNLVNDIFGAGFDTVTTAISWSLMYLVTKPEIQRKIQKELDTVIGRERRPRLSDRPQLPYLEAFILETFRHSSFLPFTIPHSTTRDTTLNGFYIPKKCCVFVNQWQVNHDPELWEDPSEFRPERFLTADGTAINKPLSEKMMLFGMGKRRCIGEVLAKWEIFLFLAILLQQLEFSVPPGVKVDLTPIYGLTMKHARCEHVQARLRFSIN

CYP2D6 = CYP2D6 (Homo sapiens, UniProt P10635); assay: Inhibition of CYP2D6 (unknown origin) at 3 uM relative to control; format: ADME
CYP2D6, sequence (P10635 whole entry): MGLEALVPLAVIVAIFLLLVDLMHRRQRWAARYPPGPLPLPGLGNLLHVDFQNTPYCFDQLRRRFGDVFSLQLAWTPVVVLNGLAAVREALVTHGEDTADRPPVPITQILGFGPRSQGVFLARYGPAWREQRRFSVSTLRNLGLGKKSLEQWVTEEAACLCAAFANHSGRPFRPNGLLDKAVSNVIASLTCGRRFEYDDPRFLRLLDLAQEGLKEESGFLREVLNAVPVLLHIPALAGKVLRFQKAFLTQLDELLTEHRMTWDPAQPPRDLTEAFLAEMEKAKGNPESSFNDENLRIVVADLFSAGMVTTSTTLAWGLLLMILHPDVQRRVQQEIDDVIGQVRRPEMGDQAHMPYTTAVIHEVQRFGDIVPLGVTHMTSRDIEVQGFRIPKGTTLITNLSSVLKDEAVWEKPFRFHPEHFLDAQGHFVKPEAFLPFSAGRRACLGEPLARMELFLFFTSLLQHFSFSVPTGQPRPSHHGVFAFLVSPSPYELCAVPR

CYP2C9 = CYP2C9 (Homo sapiens, UniProt P11712); assay: Inhibition of CYP2C9 (unknown origin) at 3 uM relative to control; format: ADME
CYP2C9, sequence (P11712 whole entry): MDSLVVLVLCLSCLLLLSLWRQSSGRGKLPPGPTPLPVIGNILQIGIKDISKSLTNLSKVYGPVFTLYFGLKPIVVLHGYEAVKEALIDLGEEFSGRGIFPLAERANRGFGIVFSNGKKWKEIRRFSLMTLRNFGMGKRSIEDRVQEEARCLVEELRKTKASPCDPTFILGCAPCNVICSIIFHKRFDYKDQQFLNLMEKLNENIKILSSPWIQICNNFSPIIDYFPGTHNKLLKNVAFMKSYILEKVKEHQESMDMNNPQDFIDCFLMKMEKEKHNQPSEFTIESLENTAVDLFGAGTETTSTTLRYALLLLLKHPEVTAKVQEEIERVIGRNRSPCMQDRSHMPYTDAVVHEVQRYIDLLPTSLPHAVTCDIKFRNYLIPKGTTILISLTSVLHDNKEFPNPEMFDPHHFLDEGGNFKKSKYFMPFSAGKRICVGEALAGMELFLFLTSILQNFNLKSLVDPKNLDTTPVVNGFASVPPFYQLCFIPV

CYP3A4 = CYP3A4 (Homo sapiens, UniProt P08684); assay: Inhibition of CYP3A4 (unknown origin) at 3 uM relative to control; format: ADME
CYP3A4, sequence (P08684 whole entry): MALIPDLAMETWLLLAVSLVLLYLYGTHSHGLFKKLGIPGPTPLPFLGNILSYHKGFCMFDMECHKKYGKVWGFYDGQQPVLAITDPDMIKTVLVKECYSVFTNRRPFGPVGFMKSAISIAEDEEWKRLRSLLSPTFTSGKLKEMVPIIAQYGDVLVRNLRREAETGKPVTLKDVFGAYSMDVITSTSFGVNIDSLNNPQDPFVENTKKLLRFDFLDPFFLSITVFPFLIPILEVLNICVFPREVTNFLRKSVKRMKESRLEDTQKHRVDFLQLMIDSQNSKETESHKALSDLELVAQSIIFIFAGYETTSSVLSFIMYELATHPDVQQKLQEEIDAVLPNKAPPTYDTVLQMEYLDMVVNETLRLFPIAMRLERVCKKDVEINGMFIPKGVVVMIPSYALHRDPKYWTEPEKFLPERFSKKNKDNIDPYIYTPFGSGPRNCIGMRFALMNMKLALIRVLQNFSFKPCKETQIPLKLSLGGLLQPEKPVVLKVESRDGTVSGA

[11] = Unbound fraction in human plasma by equilibrium dialysis analysis; format: ADME, cell-free
[12] = Unbound fraction in rat plasma by equilibrium dialysis analysis; format: ADME, cell-free
[13] = Unbound fraction in mouse plasma by equilibrium dialysis analysis; format: ADME, cell-free
[14] = Clearance in Sprague-Dawley rat at 1 mg/kg, iv; format: ADME, organism-based; conditions: in vivo
[15] = Volume of distribution at steady state in Sprague-Dawley rat at 1 mg/kg, iv; format: ADME, organism-based; conditions: in vivo, read-out: Vdss
[16] = Half life in Sprague-Dawley rat at 1 mg/kg, iv; format: ADME, organism-based; conditions: in vivo
[17] = Cmax in Sprague-Dawley rat at 1 mg/kg, iv; format: ADME, organism-based; set-up: dose 1 mg/kg, route iv; conditions: in vivo
[18] = Oral bioavailability in Sprague-Dawley rat at 5 mg/kg; format: ADME, organism-based; conditions: in vivo
Mus musculus = assay: Downregulation of PCSK9 level in po dosed mouse; format: functional, organism-based; conditions: dose 10-300 mg/kg
[19] = Toxicity in rat assessed as mortality at 25 to 400 mg/kg, po measured for 14 days; format: organism-based; conditions: in vivo, 336 h, dose 25-400 mg/kg, time 14 day
[20] = Toxicity in rat assessed as reduction in T cells in peripheral blood at 150 mg/kg, po measured for 14 days; format: organism-based, T-cell; conditions: in vivo, 336 h, time 14 day
[21] = Toxicity in rat assessed as reduction in T helper cells in peripheral blood at 150 mg/kg, po measured for 14 days; format: organism-based, T-cell; conditions: in vivo, 336 h, time 14 day
[22] = Toxicity in rat assessed as reduction in T cytotoxic cells in peripheral blood at 150 mg/kg, po measured for 14 days; format: organism-based, T-cell; conditions: in vivo, 336 h, time 14 day
[23] = Toxicity in rat assessed as reduction in B cells in peripheral blood at 150 mg/kg, po measured for 14 days; format: organism-based; conditions: in vivo, 336 h, time 14 day
[24] = Cmax in rat at 25 mg/kg, po; format: ADME, organism-based; set-up: dose 25 mg/kg, route po; conditions: in vivo

Proprotein convertase subtilisin/kexin type 9, sequence (Q8NBP7 31-152 limits assumed): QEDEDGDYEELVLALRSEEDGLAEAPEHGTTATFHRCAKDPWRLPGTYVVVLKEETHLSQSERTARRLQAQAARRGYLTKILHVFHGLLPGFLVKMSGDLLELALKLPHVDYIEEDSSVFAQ
Proprotein convertase subtilisin/kexin type 9, sequence (Q8NBP7 153-692 limits assumed): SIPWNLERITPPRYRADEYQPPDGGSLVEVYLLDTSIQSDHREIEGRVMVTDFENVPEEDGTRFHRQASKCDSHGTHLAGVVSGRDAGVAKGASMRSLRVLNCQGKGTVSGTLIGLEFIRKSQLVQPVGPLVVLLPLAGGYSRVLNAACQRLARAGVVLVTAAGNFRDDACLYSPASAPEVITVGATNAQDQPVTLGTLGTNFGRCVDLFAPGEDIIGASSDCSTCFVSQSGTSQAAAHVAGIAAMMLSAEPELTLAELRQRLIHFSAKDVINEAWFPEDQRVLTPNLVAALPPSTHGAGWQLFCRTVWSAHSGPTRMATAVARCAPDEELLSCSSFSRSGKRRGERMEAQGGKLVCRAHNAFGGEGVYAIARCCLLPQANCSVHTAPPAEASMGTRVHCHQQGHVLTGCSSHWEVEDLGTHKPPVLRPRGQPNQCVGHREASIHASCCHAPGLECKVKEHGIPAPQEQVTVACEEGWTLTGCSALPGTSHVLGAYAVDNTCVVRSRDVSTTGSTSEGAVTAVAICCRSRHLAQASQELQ

For `Cc1cccnc1N(C(=O)c1ccc(-c2cnn3cccnc23)cc1)[C@@H]1CCCNC1`, the IC50 [1] was 2.25 µM, the IC50 [2] was 16.8 µM and the “Ratio IC50” value [3] was 7.47. It also gave an IC50 [4] of 18.2 µM, an IC50 [5] of 13.6 µM and an IC50 [6] of 56.5 µM. For the same molecule, the logD [7] was 0.6, the Papp [8] was 7 ×10⁻⁶ cm/s and the Papp A→B [9] was 0.4 ×10⁻⁶ cm/s. The Papp B→A [10] was 15.7 ×10⁻⁶ cm/s, the inhibition at 3 µM (CYP1A2) was < 5% and the inhibition at 3 µM (CYP2D6) was < 5%. For the same molecule, the inhibition at 3 µM (CYP2C9) was < 5%, the inhibition at 3 µM (CYP3A4) was < 5% and the Fu [11] was 0.54%. For the same molecule, the Fu [12] was 0.32%, the Fu [13] was 0.37% and the clearance [14] was 43.6 mL/min/kg. For the same molecule, the Vd [15] was 3 L/kg, the half-life [16] was 1.7 h and the Cmax [17] was 121 ng/mL. For the same molecule, the bioavailability [18] was 20%, the Activity (Mus musculus) was “Dose-Dependent Effect” and the Activity [19] was “Non-Toxic”. For the same molecule, the Activity [20] was “Non-Toxic”, the Activity [21] was “Non-Toxic” and the Activity [22] was “Non-Toxic”. For the same molecule, the Activity [23] was “Non-Toxic” and the Cmax [24] was 255 ng/mL.
